# Data: US7109216B2 (priority 2001, dated 2006)
# Read-outs that look alike come from different tables or passages of the source.
# Legend:
# [1] = target: human cannabinoid CB1 receptor (Homo sapiens, UniProt P21554); assay: biochemical; type: binding; design: expressed in transfected cells; host or cells: Chinese hamster ovary (CHO) cells, membrane preparation; conditions: [3H]CP-55,940 radioligand, CHO cell membranes stably transfected with human CB1
# Description: After incubation of a freshly prepared cell membrane preparation with the [^3H]-ligand, with or without addition of compounds of the invention, separation of bound and free ligand was performed by filtration over glassfiber filters. Radioactivity on the filter was measured by liquid scintillation counting.
# Sequence of human cannabinoid CB1 receptor (P21554 whole entry): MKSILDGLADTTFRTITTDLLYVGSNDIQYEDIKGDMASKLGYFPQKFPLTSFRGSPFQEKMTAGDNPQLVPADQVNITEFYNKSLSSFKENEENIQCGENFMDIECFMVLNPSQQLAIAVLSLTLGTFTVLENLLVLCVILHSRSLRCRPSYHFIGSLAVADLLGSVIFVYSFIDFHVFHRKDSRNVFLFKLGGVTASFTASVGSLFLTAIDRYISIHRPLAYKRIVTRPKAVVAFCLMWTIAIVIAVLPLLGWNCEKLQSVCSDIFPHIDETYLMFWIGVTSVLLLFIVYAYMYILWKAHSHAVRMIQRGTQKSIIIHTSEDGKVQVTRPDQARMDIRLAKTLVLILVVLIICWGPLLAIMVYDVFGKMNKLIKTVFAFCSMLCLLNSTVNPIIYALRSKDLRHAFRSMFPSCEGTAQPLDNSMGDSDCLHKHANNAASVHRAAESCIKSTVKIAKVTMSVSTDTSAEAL
SMILES,melting point [°C],Ki ([1]; read-out: hCB1 pKi (converted)) [nM],Ki ([1]; hCB1 pKi) [nM]
CCCCCNC(=O)c1cn(-c2ccc(Cl)cc2)c(-c2ccc(Cl)cc2OC)n1,115,,
CCN(CC)C(=O)c1cn(-c2ccc(Cl)cc2)c(-c2ccc(Cl)cc2Cl)n1,177 to 179,,
O=C(NC12CC3CC(CC(C3)C1)C2)c1cn(-c2ccc(Cl)cc2)c(-c2ccc(Cl)cc2C(F)(F)F)n1,288,,
O=C(NCC(F)(F)F)c1cn(-c2ccc(Cl)cc2)c(-c2ccc(Cl)cc2C(F)(F)F)n1,149,,
CCCCCNC(=O)c1cn(-c2cccnc2)c(-c2ccc(Cl)cc2Cl)n1,117,,
"O=C(Nc1ccccc1)c1cn(-c2ccc(Cl)cc2)c(-c2ccc(Cl)cc2Cl)n1 [Example 4, 1-(4-Chlorophenyl)-2-(2,4-dichlorophenyl)-N-phenyl-1H-imidazole-4-carboxamide]",,126,
"Cc1c(C(=O)NOC(C)(C)C)nc(-c2ccc(Cl)cc2)n1-c1ccc(Cl)cc1Cl [Example 11, N-(t-Butoxy)-2-(4-chlorophenyl)-1-(2,4-dichlorophenyl)-5-methyl-1H-imidazole-4-carboxamide]",,501,
"COc1cc(Cl)ccc1-c1nc(C(=O)NN2CCCCC2)cn1-c1ccc(Cl)cc1 [Example 28, 1-(4-Chlorophenyl)-2-(2-methoxy-4-chlorophenyl)-N-(piperidin-1-yl)-1H-imidazole-4-carboxamide]",220,,63.1
"O=C(NN1CCCCC1)c1cn(-c2ccc(Cl)cc2)c(-c2ccc(Cl)cc2F)n1 [Example 30, 1-(4-Chlorophenyl)-2-(2-fluoro-4-chlorophenyl)-N-(piperidin-1-yl)-1H-imidazole-4-carboxamide]",217 to 218,,25.1
"O=C(NC1CCCCC1)c1cn(-c2ccc(F)cc2)c(-c2ccc(Cl)cc2Cl)n1 [Example 32, N-Cyclohexyl-2-(2,4-dichlorophenyl)-1-(4-fluorophenyl)-1H-imidazole-4-carboxamide]",184 to 185,,25.1
"COc1ccc(-n2cc(C(=O)NN3CCCCC3)nc2-c2ccc(Cl)cc2Cl)cc1 [Example 35, 2-(2,4-Dichlorophenyl)-1-(4-methoxyphenyl)-N-(piperidin-1-yl)-1H-imidazole-4-carboxamide]",178 to 179,,50.1
"Cc1c(C(=O)N(C)C)nc(-c2ccc(Cl)cc2Cl)n1-c1ccc(Cl)cc1 [Example 50, 1-(4-Chlorophenyl)-2-(2,4-dichlorophenyl)-N,N,5-trimethyl-1H-imidazole-4-carboxamide]",,,5.01
"Cc1c(C(=O)NN2CCCCCC2)nc(-c2ccc(Cl)cc2Cl)n1-c1ccc(Cl)cn1 [Example 53, N-(1-Azepanyl)-1-(5-Chloropyridin-2-yl)-2-(2,4-dichlorophenyl)-5-methyl-1H-imidazole-4-carboxamide]",,,50.1
"Cc1c(C(=O)NC2CCCCC2)nc(-c2ccc(Cl)cc2Cl)n1-c1ccc(Cl)cn1 [Example 54, 1-(5-Chloropyridin-2-yl)-N-cyclohexyl-2-(2,4-dichlorophenyl)-5-methyl-1H-imidazole-4-carboxamide]",,,100
"CCCCCNC(=O)c1nc(-c2ccc(Cl)cc2Cl)n(-c2ccc(Cl)cn2)c1C [Example 55, 1-(5-Chloropyridin-2-yl)-2-(2,4-dichlorophenyl)-5-methyl-N-(n-pentyl)-1H-imidazole-4-carboxamide]",,,50.1
"CCCCCNC(=O)c1nc(-c2ccc(Cl)cc2OC)n(-c2ccc(Cl)cc2)c1C [Example 59, 1-(4-Chlorophenyl)-2-(2-methoxy-4-chlorophenyl)-5-methyl-N-(n-pentyl)-1H-imidazole-4-carboxamide]",131,,501
"CCCCCNC(=O)c1nc(-c2ccc(Cl)cc2Cl)n(-c2ccc(Cl)cn2)c1CC [Example 79, 1-(5-Chloropyridin-2-yl)-2-(2,4-dichlorophenyl)-5-ethyl-N-(n-pentyl)-1H-imidazole-4-carboxamide]",,,15.8
"Cc1c(C(=O)NC2CC3CCC2C3)nc(-c2ccc(Cl)cc2Cl)n1-c1ccc(Cl)cc1 (stereo not drawn) [Example 89, N-(Endo-bicyclo[2.2.1]hept-2-yl)-1-(4-chlorophenyl)-2-(2,4-dichlorophenyl)-5-methyl-1H-imidazole-4-carboxamide]",,,6.31
"CCCCCNC(=O)c1nc(-c2ccc(Cl)cc2Cl)n(-c2ccc(Cl)cc2)c1C [Example 91, 1-(4-Chlorophenyl)-2-(2,4-dichlorophenyl)-5-methyl-N-(n-pentyl)-1H-imidazole-4-carboxamide]",,,31.6
"CS(=O)(=O)c1c(C(=O)NC2CCCCC2)nc(-c2ccc(Cl)cc2Cl)n1-c1ccc(Cl)cc1 [Example 119, 1-(4-chlorophenyl)-2-(2,4-dichlorophenyl)-5-methylsulfonyl-N-(cyclohexyl)-1H-imidazole-4-carboxamide]",,,63.1
"CSc1c(C(=O)NC2CCCCC2)nc(-c2ccc(Cl)cc2Cl)n1-c1ccc(Cl)cc1 [Example 121, 1-(4-chlorophenyl)-2-(2,4-dichlorophenyl)-5-methylsulfanyl-N-(cyclohexyl)-1H-imidazole-4-carboxamide]",,,63.1

# Second part, led by results:
melting point [°C],Ki ([1]; read-out: hCB1 pKi (converted)) [nM],SMILES,Ki ([1]; hCB1 pKi) [nM]
198 to 199,,CCc1c(C(=O)NC2CCCCC2)nc(-c2cc(Cl)ccc2Cl)n1-c1ccccc1,
207 to 208,,CCc1c(C(=O)NN2CCCCC2)nc(-c2cc(Cl)ccc2Cl)n1-c1ccccc1,
211 to 213,,Cc1cccnc1-c1nc(C(=O)NN2CCCCC2)c(C)n1-c1ccc(Cl)cc1,
188 to 190,,Cc1cccnc1-c1nc(C(=O)NC2CCCCC2)c(C)n1-c1ccc(Cl)cc1,
238 to 240,,O=C(NN1CCCC1)c1cn(-c2ccc(Br)cc2)c(-c2ccc(Cl)cc2Cl)n1,
195,,O=C(NC1CCCCC1)c1cn(-c2cccnc2)c(-c2ccc(Cl)cc2Cl)n1,
212,,Cc1c(C(=O)NC2CCCCC2)nc(-c2ccc(Cl)cc2C(F)(F)F)n1-c1ccc(Cl)cc1,
> 256,,COc1cc(Cl)ccc1-c1nc(C(=O)NN2CCCCC2)c(C)n1-c1ccc(Cl)cc1,
201,,COc1cc(Cl)ccc1-c1nc(C(=O)NC2CCCCC2)c(C)n1-c1ccc(Cl)cc1,
229 to 230,,Cc1c(C(=O)NC2CCCCC2)nc(-c2ccc(Cl)cc2Cl)n1-c1ccc(F)cc1,
97 to 102,,CCCCCNC(=O)c1nc(-c2ccccc2Cl)n(-c2cccc(F)c2)c1C,
195 to 196,,CCc1c(C(=O)NC2CCCCC2)nc(-c2ccc(C)n2C)n1-c1ccccc1,
175 to 176,200,"O=C(NN1CCCCC1)c1cn(-c2ccc(F)cc2)c(-c2ccc(Cl)cc2Cl)n1 [Example 31, 2-(2,4-Dichlorophenyl)-1-(4-fluorophenyl)-N-(piperidin-1-yl)-1H-imidazole-4-carboxamide]",
157 to 159,501,"O=C(NC1CCCCC1)c1cn(-c2ccc(Cl)cc2)c(-c2ccc(Cl)cc2F)n1 [Example 33, N-Cyclohexyl-2-(2-fluoro-4-chlorophenyl)-1-(4-chlorophenyl)-1H-imidazole-4-carboxamide]",
165 to 170,,"O=C(NN1CCCCC1)c1cn(-c2cccnc2)c(-c2ccc(Cl)cc2Cl)n1 [Example 42, 2-(2,4-Dichlorophenyl)-1-(pyridin-3-yl)-N-(piperidin-1-yl)-1H-imidazole-4-carboxamide]",
178 to 179,158,"Cc1c(C(=O)NC2CCCCC2)nc(-c2ccc(Cl)cc2Cl)n1-c1ccc(C(F)(F)F)cc1 [Example 47, N-Cyclohexyl-2-(2,4-dichlorophenyl)-5-methyl-1-(4-(trifluoromethyl)phenyl)-1H-imidazole-4-carboxamide]",
160 to 161,126,"COc1ccc(-n2c(-c3ccc(Cl)cc3Cl)nc(C(=O)NC3CCCCC3)c2C)cc1 [Example 49, N-(1-cyclohexyl)-2-(2,4-dichlorophenyl)-5-methyl-1-(4-methoxyphenyl)-1H-imidazole-4-carboxamide]",
123 to 126,158,"Cc1c(C(=O)NCc2ccc(F)cc2)nc(-c2ccc(Cl)cc2Cl)n1-c1ccc(Cl)cn1 [Example 56, 1-(5-Chloropyridin-2-yl)-2-(2,4-dichlorophenyl)-N-(4-fluorobenzyl)-5-methyl-1H-imidazole-4-carboxamide]",
165,200,"Cc1c(C(=O)NN2CCCCC2)nc(-c2ccc(Cl)cc2C(F)(F)F)n1-c1ccc(Cl)cc1 [Example 58, 1-(4-Chlorophenyl)-5-methyl-N-(piperidin-1-yl)-2-(2-trifluoromethyl-4-chlorophenyl)-1H-imidazole-4-carboxamide]",
195,501,"Cc1c(C(=O)NN2CCCCC2)nc(-c2ccc(Cl)cc2F)n1-c1ccc(Cl)cc1 [Example 66, 1-(4-Chlorophenyl)-2-(2-fluoro-4-chlorophenyl)-5-methyl-N-(piperidin-1-yl)-1H-imidazole-4-carboxamide]",
143 to 146,,"Cc1c(C(=O)C2NCCc3ccccc32)nc(-c2ccc(Cl)cc2Cl)n1-c1ccc(Cl)cc1 (centres unmarked) [Example 88, 1-{[1-(4-Chlorophenyl)-2-(2,4-dichlorophenyl)-5-methyl-1H-imidazol-4-yl]carbonyl}-1,2,3,4-tetrahydroisoquinoline]",
144 to 146,,"CCc1c(C(=O)NC2CCCCC2)nc(-c2ccc(Cl)cc2Cl)n1-c1cc(F)ccc1F [Example 97, N-Cyclohexyl-2-(2,4-dichlorophenyl)-1-(2,5-difluorophenyl)-5-ethyl-1H-imidazole-4-carboxamide]",
206 to 208,,"Cc1c(C(=O)NC2CCCCC2)nc(-c2ccc(Cl)cc2Cl)n1-c1cc(F)ccc1F [Example 98, N-Cyclohexyl-2-(2,4-dichlorophenyl)-1-(2,5-difluorophenyl)-5-methyl-1H-imidazole-4-carboxamide]",
